The record followed here is patent US9586931B2 (Merck Sharp & Dohme Corp., priority 2012, dated 2017).

pIC50: −log10 of the molar value.

This experiment deals with T1, recombinant human GST-Syk (Homo sapiens, UniProt P43405).
T1 construct: purchased Carna Biosciences 08-176
In words: Homogeneous Time-Resolved Fluorescence (HTRF) assay for the recombinant human Syk enzyme. It counts as biochemical. The note with it: recombinant human GST-Syk 5 pM, ATP 25 μM, 10-dose titration 10 μM to 0.508 nM; read-out: rhSYK Activity IC50. Put shortly:
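Detection used time-resolved fluorescence 30 min after adding a quench mix (40 mM EDTA, 15 mM Tris pH 7.5, 0.01% Tween 20) containing 2 nM Europium anti-pTyr antibody and 70 nM streptavidin-APC. This followed 45 min of room-temperature peptide phosphorylation by recombinant GST-tagged human Syk.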
On the technique in general: Time-resolved FRET reads energy transfer from a long-lived donor to a nearby acceptor.
The pIC50 is the IC50 on a negative log10 scale, so that one unit is a factor of ten. Turning to `Cc1cc(Nc2cc(C(F)(F)F)ccn2)nc(-c2cn(CC(O)c3ccc(C(N)=O)cc3)nn2)c1` (centres unmarked) [Example 1.10, 4-{1-hydroxy-2-[4-(4-methyl-6-{[4-(trifluoromethyl)pyridin-2-yl]amino}pyridin-2-yl)-1H-1,2,3-triazol-1-yl]ethyl}benzamide], the pIC50 was 8.20. In the case of `Cc1cc(Nc2cc(C(F)(F)F)ccn2)nc(-c2cn(-c3ccc(Br)cn3)nn2)c1` [6.2] it was 5.95. With `Cc1ccnc(Nc2cc(C)cc(-c3cn(C[C@@H](C)CO)nn3)n2)c1` [Example 5.15, (2R)-2-methyl-3-(4-{4-methyl-6-[(4-methylpyridin-2-yl)amino]pyridin-2-yl}-1H-1,2,3-triazol-1-yl)propan-1-ol], the pIC50 is 6.62. In the case of `COCC(O)Cn1cc(-c2cc(C)cc(Nc3cc(C(F)(F)F)ccn3)n2)nn1` (centres unmarked) [Example 4.23, 1-methoxy-3-[4-(4-methyl-6-{[4-(trifluoromethyl)pyridin-2-yl]amino}pyridin-2-yl)-1H-1,2,3-triazol-1-yl]propan-2-ol] it was 8.27; in that of `Cc1cc(Nc2cc(C(F)F)ccn2)nc(-c2cn(C(C)C3CNC(=O)O3)nn2)c1` (single isomer, unassigned) [Example 7.11, 5-(1-(4-(6-((4-(difluoromethyl)pyridin-2-yl)amino)-4-methylpyridin-2-yl)-1H-1,2,3-triazol-1-yl)ethyl)oxazolidin-2-one], 8.85. `Cc1cc(Nc2cc(C(F)(F)F)ccn2)nc(-c2cn(CC3(O)CCOC3)nn2)c1` (single isomer, unassigned) [Example 5.12, 3-{[4-(4-methyl-6-{[4-(trifluoromethyl)pyridin-2-yl]amino}pyridin-2-yl)-1H-1,2,3-triazol-1-yl]methyl}tetrahydrofuran-3-ol]: the pIC50 was 7.95. Take `Cc1cc(Nc2cc(C(F)(F)F)ccn2)nc(-c2cn(C(C)C(=O)NCCc3ccc4ccccc4c3)nn2)c1` (centres unmarked) [Example 1.32, 2-[4-(4-methyl-6-{[4-(trifluoromethyl)pyridin-2-yl]amino}pyridin-2-yl)-1H-1,2,3-triazol-1-yl]-N-(2-naphthalen-2-ylethyl)propanamide]: the pIC50 was 6.45. In the case of `Cc1cc(Nc2ncc(F)c(C(F)F)n2)cc(-c2cn(CC3OC(=O)NC3C)nn2)c1` (single isomer, unassigned) [Example 7.39, 5-{[4-(3-{[4-(difluoromethyl)-5-fluoropyrimidin-2-yl]amino}-5-methylphenyl)-1H-1,2,3-triazol-1-yl]methyl}-4-methyl-1,3-oxazolidin-2-one] it was 7.91. In the case of `Cc1cc(Nc2cc(C(F)F)ccn2)nc(-c2cn(C(C)C3CNC(=O)O3)nn2)c1` (single isomer, unassigned) [Example 7.10, 5-(1-(4-(6-((4-(difluoromethyl)pyridin-2-yl)amino)-4-methylpyridin-2-yl)-1H-1,2,3-triazol-1-yl)ethyl)oxazolidin-2-one] it was 8.77; in that of `Cc1cc(Nc2cc(C(F)(F)F)ccn2)nc(-c2cn([C@H](C)C(N)=O)nn2)c1` [Example 1.23, (2R)-2-[4-(4-methyl-6-{[4-(trifluoromethyl)pyridin-2-yl]amino}pyridin-2-yl)-1H-1,2,3-triazol-1-yl]propanamide], 8.17; in that of `COC(=O)C1CCC(n2cc(-c3cc(C)cc(Nc4cc(C(F)(F)F)ccn4)n3)nn2)CC1(C)C` (centres unmarked) [Example 9.3, methyl 2,2-dimethyl-4-[4-(4-methyl-6-{[4-(trifluoromethyl)pyridin-2-yl]amino}pyridin-2-yl)-1H-1,2,3-triazol-1-yl]cyclohexane-carboxylate], 6.50. In the case of `Cc1cc(Nc2cc(C(F)(F)F)ccn2)nc(-c2cn(CC(O)C(=O)O)nn2)c1` (centres unmarked) [Example 14, 2-Hydroxy-3-(4-(4-methyl-6-((4-(trifluoromethyl)pyridin-2-yl)amino)pyridin-2-yl)-1H-1,2,3-triazol-1-yl)propanoic acid] it was 7.35; in that of `Cc1cc(Nc2cc(C)c(F)cn2)nc(-c2cn(CC(C)(O)C(C)(C)O)nn2)c1` (centres unmarked) [Example 21.22, 1-(4-{6-[(5-fluoro-4-methylpyridin-2-yl)amino]-4-methylpyridin-2-yl}-1H-1,2,3-triazol-1-yl)-2,3-dimethylbutane-2,3-diol], 7.07; in that of `Cc1cc(Nc2cc(C(F)(F)F)ccn2)nc(-c2cn(C(C)C(=O)N[C@H]3C[C@@H]3c3ccccc3)nn2)c1` (stereo partly drawn) [Example 1.40, 2-[4-(4-methyl-6-{[4-(trifluoromethyl)pyridin-2-yl]amino}pyridin-2-yl)-1H-1,2,3-triazol-1-yl]-N-[(1S,2R)-2-phenylcyclopropyl]propanamide], 6.93. On to `Cc1cc(Nc2nccc(C(F)(F)F)n2)cc(-n2cc(CC(C)(C)C(=O)O)nn2)c1` [Example 15.13, 2,2-dimethyl-3-[1-(3-methyl-5-{[4-(trifluoromethyl)pyrimidin-2-yl]amino}phenyl)-1H-1,2,3-triazol-4-yl]propanoic acid], for which the negative-log IC50 (pIC50) was 7.06. The same measure for `Cc1cc(Nc2cc(C(F)(F)F)ccn2)nc(-c2cn(C(C)C(=O)N3CCc4onc(-c5ccc(F)cc5)c4C3)nn2)c1` (centres unmarked) [Example 1.39, 6-(1-{2-[3-(4-fluorophenyl)-6,7-dihydroisoxazolo[4,5-c]pyridin-5(4H)-yl]-1-methyl-2-oxoethyl}-1H-1,2,3-triazol-4-yl)-4-methyl-N-[4-(trifluoromethyl)pyridin-2-yl]pyridin-2-amine]: 6.43. With `Cc1cc(Nc2cc(C(F)(F)F)ccn2)nc(-c2cn(C(C)C(=O)NCc3cccc4nsnc34)nn2)c1` (centres unmarked) [Example 1.33, N-(2,1,3-benzothiadiazol-4-ylmethyl)-2-[4-(4-methyl-6-{[4-(trifluoromethyl)pyridin-2-yl]amino}pyridin-2-yl)-1H-1,2,3-triazol-1-yl]propanamide], the pIC50 is 6.49. As for `Cc1cc(Nc2nccc(C(F)F)n2)cc(-c2cn(C(C)C3CNC(=O)O3)nn2)c1` (single isomer, unassigned) [Example 7.3, 5-(1-(4-(3-((4-(difluoromethyl)pyrimidin-2-yl)amino)-5-methylphenyl)-1H-1,2,3-triazol-1-yl)ethyl)oxazolidin-2-one], the pIC50 was 8.26.

Turning to `Cc1cc(Nc2cc(C(F)(F)F)ccn2)nc(-c2cn(C(C)C(=O)NC(C)c3cnn(-c4ccccc4F)c3)nn2)c1` (centres unmarked) [Example 1.35, N-{1-[1-(2-fluorophenyl)-1H-pyrazol-4-yl]ethyl}-2-[4-(4-methyl-6-{[4-(trifluoromethyl)pyridin-2-yl]amino}pyridin-2-yl)-1H-1,2,3-triazol-1-yl]propanamide], the pIC50 was 6.77. As to `Cc1cc(Nc2nccc(C(F)(F)F)n2)cc(-c2cn(C(C)C(O)CC#N)nn2)c1` (single isomer, unassigned) [Example 4.7, 3-hydroxy-4-[4-(3-methyl-5-{[4-(trifluoromethyl)pyrimidin-2-yl]amino}phenyl)-1H-1,2,3-triazol-1-yl]pentanenitrile], the pIC50 was 7.80. In the case of `COCC(C)(C)NC(=O)Cn1cc(-c2cc(C)cc(Nc3nccc(C(F)(F)F)n3)c2)nn1` [Example 5.67, N-(2-methoxy-1,1-dimethylethyl)-2-[4-(3-methyl-5-{[4-(trifluoromethyl)pyrimidin-2-yl]amino}phenyl)-1H-1,2,3-triazol-1-yl]acetamide] it was 6.53; in that of `CCOC(=O)C1(n2cc(-c3cc(C)cc(Nc4cc(C(F)(F)F)ccn4)n3)nn2)CCC1` [Example 8.2, ethyl 1-[4-(4-methyl-6-{[4-(trifluoromethyl)-pyridin-2-yl]amino}-pyridin-2-yl)-1H-1,2,3-triazol-1-yl]cyclobutane-carboxylate], 7.14; in that of `COC(=O)[C@H]1CC[C@](O)(c2cn(-c3cc(C)cc(Nc4nccc(C(F)(F)F)n4)c3)nn2)CC1(C)C` [Example 15.10, methyl (1S,4R)-4-hydroxy-2,2-dimethyl-4-[1-(3-methyl-5-{[4-(trifluoromethyl)pyrimidin-2-yl]amino}phenyl)-1H-1,2,3-triazol-4-yl]cyclohexanecarboxylate], 6.75. The same measure for `Cc1cc(Nc2cc(C(F)(F)F)ccn2)nc(-c2cn(C3CN(C(=O)CCC(N)=O)CC3O)nn2)c1` (centres unmarked) [Example 13.5, 4-{-3-hydroxy-4-[4-(4-methyl-6-{[4-(trifluoromethyl)pyridin-2-yl]amino}pyridin-2-yl)-1H-1,2,3-triazol-1-yl]pyrrolidin-1-yl}-4-oxobutanamide]: 7.82; for `Cc1cc(Nc2nccc(C(F)F)n2)cc(-c2cn(CC3=CCC(=O)N=C3)nn2)c1` [Example 7.16, 5-((4-(3-((4-(difluoromethyl)pyrimidin-2-yl)amino)-5-methylphenyl)-1H-1,2,3-triazol-1-yl)methyl)pyridin-2(3H)-one]: 8.64. In the case of `Cc1cc(Nc2cc(C(F)(F)F)ccn2)nc(-c2cn(CCCO)nn2)c1` [Example 5.94, 3-[4-(4-methyl-6-{[4-(trifluoromethyl)pyridin-2-yl]amino}pyridin-2-yl)-1H-1,2,3-triazol-1-yl]propan-1-ol] it was 6.32; in that of `Cc1cc(Nc2nccc(C(F)(F)F)n2)cc(-c2nnc(CCC(=O)O)[nH]2)c1` [Example 20.1, 3-(5-(3-Methyl-5-((4-(trifluoromethyl)pyrimidin-2-yl)amino)phenyl)-4H-1,2,4-triazol-3-yl)propanoic acid], 8.11; in that of `Cc1cc(Nc2cc(C(F)(F)F)ccn2)nc(-c2cn(C[C@H](O)C(N)=O)nn2)c1` [Example 1.13, (2S)-2-hydroxy-3-[4-(4-methyl-6-{[4-(trifluoromethyl)pyridin-2-yl]amino}pyridin-2-yl)-1H-1,2,3-triazol-1-yl]propanamide], 8.47. Take `Cc1cc(Nc2cc(C(C)F)ccn2)nc(-c2cn(CC(C)(O)C(C)(C)O)nn2)c1` (centres unmarked) [Example 21.17, 1-[4-(6-{[4-(1-fluoroethyl)pyridin-2-yl]amino}-4-methylpyridin-2-yl)-1H-1,2,3-triazol-1-yl]-2,3-dimethylbutane-2,3-diol]: the negative-log IC50 (pIC50) is 7.64.
